Test results as given in US9937234B2, “Compositions and methods for using and identifying antimicrobial agents” (priority 2013, dated 2018).

B1: human CXCL11 (protein, listed as Homo sapiens)
chain: QGFPMFKRGRCLCIGPGVKAVKVADIEKASIMYPSNNCDKIEVIITLKENKGQRCLNPKSKQARLIIKKVERKNF

Test system: B. anthracis Sterne strain ΔftsX
Format: cell-based, Bacillus anthracis

Row | Molecule | susceptibility of ΔftsX | susceptibility of ΔftsX exponential and stationary phase organisms | susceptibility of ΔftsX to CXCL10-mediated killing
1 | human CXCL9 | resistant | – | –
2 | human CXCL10 | – | both resistant | resistance
3 | B1 | resistant | – | –
